The record followed here is US9540366B2, “Ring-fused heterocyclic compound” (Kyowa Hakko Kirin Co., Ltd., priority 2012, dated 2017).

Like-named read-outs stand apart in the source and are kept apart here. Where only a bound is given, the exact number is not on record here.

Assay [1] concerns morphine-induced pruritus mice. Nature of the assay: Inhibitory effect for pruritus in morphine-induced pruritus mice. In kind it is in vivo. The settings on record: given 30 minutes or 1 hour before intrathecal morphine, scratching counted for 30 minutes, male ddY mice. As for the experimental part: Inhibitory Effect for Pruritus in Morphine-Induced Pruritus Mice
Morphine (1 nmol/5 μL, dissolved in physiological saline) or physiological saline was intrathecally administered between the fifth and sixth lumbar vertebrae of male ddY mice using a microsyringe fitted with a 30-gauge injection needle. Mice to which only morphine was administered were referred to as a control group, and mice to which only physiological saline was administered were referred to as a physiological saline-administered group.
The number of scratching behavior with the hind legs which began to be observed immediately after the morphine administration was measured for 30 minutes. Because mice show continuous scratching actions in each scratching behavior, a series of such actions was counted as a single scratching behavior.
Each test compound was administered 30 minutes or 1 hour before the morphine administration. The test compound was suspended in a 0.5% methylcellulose solution and was prepared plural administration solutions of different concentrations, and each of them was orally administered in a volume of 10 mL/kg.

Assay [2] concerns the target T1, human Cav3.2 T-type Ca2+ channel (Homo sapiens, UniProt O95180).
T1 construct: expressed in transfected cells; host or cells: KJMGER8 cells (Namalwa cell-derived cell line)
Nature of the assay: Inhibitory effect for intracellular calcium response via Cav3.2 T-type Ca2+ channels (FLIPR Calcium 3 Assay Kit). Type of assay: cell-based. A general note: A change in cytosolic calcium serves as a functional read-out for many receptors and channels.

Setting [3] is: human Cav3.2-expressing KJMGER8 cells (Namalwa-derived), calcium response induced by 5 mmol/L CaCl2, 3 μmol/L mibefradil as reference, read-out: IC50 for the human Cav3.2 T-type Ca2+ current.

T1 sequence (O95180 whole entry): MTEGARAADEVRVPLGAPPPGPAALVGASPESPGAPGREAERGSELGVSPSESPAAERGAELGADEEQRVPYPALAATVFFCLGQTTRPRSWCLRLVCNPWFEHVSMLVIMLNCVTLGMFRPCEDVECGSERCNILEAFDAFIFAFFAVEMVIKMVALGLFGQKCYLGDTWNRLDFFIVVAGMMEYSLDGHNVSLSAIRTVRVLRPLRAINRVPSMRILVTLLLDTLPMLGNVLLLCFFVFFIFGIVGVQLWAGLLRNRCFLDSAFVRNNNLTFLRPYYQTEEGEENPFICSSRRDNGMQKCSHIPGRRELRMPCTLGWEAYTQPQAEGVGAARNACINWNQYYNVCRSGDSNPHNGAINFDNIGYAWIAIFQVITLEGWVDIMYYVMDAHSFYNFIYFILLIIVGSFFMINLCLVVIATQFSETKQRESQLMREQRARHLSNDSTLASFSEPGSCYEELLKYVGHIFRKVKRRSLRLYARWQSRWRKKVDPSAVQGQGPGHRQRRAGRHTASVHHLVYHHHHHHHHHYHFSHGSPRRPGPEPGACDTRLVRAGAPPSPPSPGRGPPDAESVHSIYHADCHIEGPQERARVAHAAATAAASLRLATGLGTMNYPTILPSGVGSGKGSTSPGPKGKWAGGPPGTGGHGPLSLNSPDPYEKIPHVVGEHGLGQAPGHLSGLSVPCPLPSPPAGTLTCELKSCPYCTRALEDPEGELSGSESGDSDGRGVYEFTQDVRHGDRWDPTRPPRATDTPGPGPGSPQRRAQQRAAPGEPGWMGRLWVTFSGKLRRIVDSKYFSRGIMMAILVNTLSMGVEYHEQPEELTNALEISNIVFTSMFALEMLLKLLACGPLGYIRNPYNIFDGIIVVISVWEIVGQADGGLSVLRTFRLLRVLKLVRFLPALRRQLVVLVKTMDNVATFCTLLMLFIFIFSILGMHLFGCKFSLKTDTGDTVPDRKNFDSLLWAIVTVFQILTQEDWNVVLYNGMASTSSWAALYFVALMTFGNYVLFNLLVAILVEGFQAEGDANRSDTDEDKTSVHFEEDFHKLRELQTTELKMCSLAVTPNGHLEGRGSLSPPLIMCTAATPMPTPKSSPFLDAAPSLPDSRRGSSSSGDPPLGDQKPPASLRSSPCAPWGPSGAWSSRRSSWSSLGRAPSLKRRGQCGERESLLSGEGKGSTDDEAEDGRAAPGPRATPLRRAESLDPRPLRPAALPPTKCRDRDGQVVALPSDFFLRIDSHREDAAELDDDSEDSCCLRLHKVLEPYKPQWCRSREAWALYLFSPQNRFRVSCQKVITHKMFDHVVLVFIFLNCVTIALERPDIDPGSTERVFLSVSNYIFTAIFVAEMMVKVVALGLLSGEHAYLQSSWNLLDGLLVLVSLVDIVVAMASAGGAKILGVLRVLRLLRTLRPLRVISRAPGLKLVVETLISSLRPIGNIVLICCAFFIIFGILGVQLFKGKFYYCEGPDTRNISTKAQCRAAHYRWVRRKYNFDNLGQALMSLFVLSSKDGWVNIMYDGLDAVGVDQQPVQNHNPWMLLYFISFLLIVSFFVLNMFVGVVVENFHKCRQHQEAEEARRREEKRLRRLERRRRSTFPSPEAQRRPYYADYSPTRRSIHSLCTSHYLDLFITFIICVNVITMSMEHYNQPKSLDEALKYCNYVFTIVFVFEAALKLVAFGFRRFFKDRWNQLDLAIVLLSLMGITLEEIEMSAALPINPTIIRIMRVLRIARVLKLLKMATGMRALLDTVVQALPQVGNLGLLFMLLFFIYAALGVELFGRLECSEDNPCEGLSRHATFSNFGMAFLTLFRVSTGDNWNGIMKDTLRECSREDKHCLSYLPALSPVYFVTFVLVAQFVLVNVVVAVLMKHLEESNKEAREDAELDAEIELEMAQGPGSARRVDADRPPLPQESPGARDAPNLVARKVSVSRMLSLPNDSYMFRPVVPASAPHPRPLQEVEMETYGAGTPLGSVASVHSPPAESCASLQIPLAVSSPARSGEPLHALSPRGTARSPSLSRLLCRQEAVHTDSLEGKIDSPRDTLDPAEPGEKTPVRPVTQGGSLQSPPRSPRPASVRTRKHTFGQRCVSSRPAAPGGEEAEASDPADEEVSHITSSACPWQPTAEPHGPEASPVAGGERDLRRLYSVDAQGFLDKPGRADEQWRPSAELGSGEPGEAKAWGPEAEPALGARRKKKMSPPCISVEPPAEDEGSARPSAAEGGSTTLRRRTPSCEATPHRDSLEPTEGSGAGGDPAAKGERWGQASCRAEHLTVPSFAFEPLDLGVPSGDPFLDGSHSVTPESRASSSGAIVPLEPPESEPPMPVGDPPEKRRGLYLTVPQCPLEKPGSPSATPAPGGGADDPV

The IC50 is the concentration at which inhibition is half-maximal. For `CC(F)(F)c1nc2cc(C(=O)NC3CCC(F)(F)CC3)c(Cl)cn2c1CC1CCC(F)(F)CC1` [Compound 15, 6-Chloro-N-(4,4-difluorocyclohexyl)-3-[(4,4-difluorocyclohexyl)methyl]-2-(1,1-difluoroethyl)imidazo[1,2-a]pyridine-7-carboxamide], the “inhibition of the increase of the scratching behavior in morphine-induced pruritus mice” value in assay [1] (oral dose of 30 mg/kg or less) is recorded as “inhibited the increase of the scratching behavior”. Also, in assay [2], the IC50 is ≤ 0.1 µM.
The corresponding values for `N#Cc1cc(C(=O)NC2CCOCC2)cc2nc(C(F)(F)F)c(CC3CCC(F)(F)CC3)n12` [Compound 40] are “inhibited the increase of the scratching behavior” and ≤ 0.1 µM.
As for `N#Cc1cc(C(=O)NCC2CC2)cc2nc(C(F)(F)F)c(CC3CCC(F)(F)CC3)n12` [Compound 53, 5-Cyano-N-(cyclopropylmethyl)-3-[(4,4-difluorocyclohexyl)methyl]-2-(trifluoromethyl)imidazo[1,2-a]pyridine-7-carboxamide], the “inhibition of the increase of the scratching behavior in morphine-induced pruritus mice” value in assay [1] (oral dose of 30 mg/kg or less) was “inhibited the increase of the scratching behavior”. In addition, the IC50 in assay [2] (setting [3]) was ≤ 0.1 µM.
In the case of `COC(C)(C)CNC(=O)c1cc(C#N)n2c(CC3CCC(F)(F)CC3)c(C(F)(F)F)nc2c1` [Compound 55, 5-Cyano-3-[(4,4-difluorocyclohexyl)methyl]-N-(2-methoxy-2-methylpropyl)-2-(trifluoromethyl)imidazo[1,2-a]pyridine-7-carboxamide], the “inhibition of the increase of the scratching behavior in morphine-induced pruritus mice” value in assay [1] (oral dose of 30 mg/kg or less) is “inhibited the increase of the scratching behavior”. In assay [2], the IC50 is ≤ 0.1 µM.
`O=C(NC1CC2(COC2)C1)c1cc(Cl)n2c(CC3CCC(F)(F)CC3)c(C(F)(F)F)nc2c1` [Compound 129, 5-Chloro-3-[(4,4-difluorocyclohexyl)methyl]-N-(2-oxaspiro[3.3]heptan-6-yl)-2-(trifluoromethyl)imidazo[1,2-a]pyridine-7-carboxamide]: the “inhibition of the increase of the scratching behavior in morphine-induced pruritus mice” value in assay [1] (oral dose of 30 mg/kg or less) was “inhibited the increase of the scratching behavior”.
Regarding `COC(C)(C)CNC(=O)c1cc(C#N)n2c(CC3CCC(F)(F)CC3)c(C(C)(F)F)nc2c1` [Compound 164, 5-Cyano-3-[(4,4-difluorocyclohexyl)methyl]-2-(1,1-difluoroethyl)-N-(2-methoxy-2-methylpropyl)imidazo[1,2-a]pyridine-7-carboxamide], the “inhibition of the increase of the scratching behavior in morphine-induced pruritus mice” value in assay [1] (oral dose of 10 mg/kg or less) is “inhibited the increase of the scratching behavior”. In assay [2], the IC50 was ≤ 0.1 µM.
For `COC(C)(C)CNC(=O)c1cc2nc(C(F)(F)F)c(CC3CCC(F)(F)CC3)n2c(C#N)c1Cl` [Compound 173, 6-Chloro-5-cyano-3-[(4,4-difluorocyclohexyl)methyl]-N-(2-methoxy-2-methylpropyl)-2-(trifluoromethyl)imidazo[1,2-a]pyridine-7-carboxamide] the same measures were “inhibited the increase of the scratching behavior” and ≤ 0.1 µM.
For the molecule `N#CC1(CNC(=O)c2cc(Cl)n3c(CC4CCC(F)(F)CC4)c(C(F)(F)F)nc3c2)CC1` [Compound 176, 5-Chloro-N-[(1-cyanocyclopropyl)methyl]-3-[(4,4-difluorocyclohexyl)methyl]-2-(trifluoromethyl)imidazo[1,2-a]pyridine-7-carboxamide], the “inhibition of the increase of the scratching behavior in morphine-induced pruritus mice” value in assay [1] (oral dose of 10 mg/kg or less) is “inhibited the increase of the scratching behavior”. In addition, the half-maximal inhibitory concentration (IC50) in assay [2] (setting [3]) was ≤ 0.1 µM.
The corresponding values for `N#Cc1cc(C(=O)N[C@H]2C[C@@H]3CC[C@H]2O3)cc2nc(C(F)(F)F)c(CC3CCC(F)(F)CC3)n12` [Compound 178, N-[(1R,2S,4S)-7-Oxabicyclo[2.2.1]heptan-2-yl]-5-cyano-3-[(4,4-difluorocyclohexyl)methyl]-2-(trifluoromethyl)imidazo[1,2-a]pyridine-7-carboxamide] are “inhibited the increase of the scratching behavior” and ≤ 0.1 µM.
As for `CC(C)c1nc2cc(C(=O)N[C@H]3C[C@@H]4CC[C@H]3O4)cc(C#N)n2c1CC1CCC(F)(F)CC1` [Compound 180, N-[(1R,2S,4S)-7-Oxabicyclo[2.2.1]heptan-2-yl]-5-cyano-3-[(4,4-difluorocyclohexyl)methyl]-2-isopropylimidazo[1,2-a]pyridine-7-carboxamide], in assay [1] (oral dose of 10 mg/kg or less), the “inhibition of the increase of the scratching behavior in morphine-induced pruritus mice” value is “inhibited the increase of the scratching behavior”. The IC50 in assay [2] was ≤ 0.1 µM.
For the molecule `Cc1c(C(=O)NC2CCOCC2)cc2nc(C(F)(F)F)c(CC3CCC(F)(F)CC3)n2c1C#N` [Compound 181, 5-Cyano-3-[(4,4-difluorocyclohexyl)methyl]-6-methyl-N-(tetrahydro-2H-pyran-4-yl)-2-(trifluoromethyl)imidazo[1,2-a]pyridine-7-carboxamide], the “inhibition of the increase of the scratching behavior in morphine-induced pruritus mice” value in assay [1] (oral dose of 10 mg/kg or less) is listed as “inhibited the increase of the scratching behavior”. For the same molecule, the half-maximal inhibitory concentration (IC50) in assay [2] (setting [3]) is ≤ 0.1 µM.
Turning to `O=C(NC1CCOCC1)c1cc2nc(C(F)(F)F)c(CC3CCC(F)(F)CC3)n2c(Cl)c1Cl` [Compound 193], the “inhibition of the increase of the scratching behavior in morphine-induced pruritus mice” value in assay [1] (oral dose of 10 mg/kg or less) was “inhibited the increase of the scratching behavior”.
As to `CC(C)(CNC(=O)c1cc2nc(C(F)(F)F)c(CC3CCC(F)(F)CC3)n2c(Cl)c1Cl)S(C)(=O)=O` [Compound 216, 5,6-Dichloro-3-[(4,4-difluorocyclohexyl)methyl]-N-[2-methyl-2-(methylsulfonyl)propyl]-2-(trifluoromethyl)imidazo[1,2-a]pyridine-7-carboxamide], in assay [2], the concentration for half-maximal inhibition (IC50) is ≤ 0.1 µM.
On the same count and under the same terms, then `Cc1cc(C(=O)NC(C)(C)C)cc2nc(C(F)(F)F)c(CC3CCC(F)(F)CC3)n12` [Compound 217, N-tert-Butyl-3-[(4,4-difluorocyclohexyl)methyl]-5-methyl-2-(trifluoromethyl)imidazo[1,2-a]pyridine-7-carboxamide], with ≤ 0.1 µM; and `Cc1cc(C(=O)NC(C)(C)C)cc2nc(C(C)(F)F)c(CC3CCC(F)(F)CC3)n12` [Compound 218, N-tert-Butyl-3-[(4,4-difluorocyclohexyl)methyl]-2-(1,1-difluoroethyl)-5-methylimidazo[1,2-a]pyridine-7-carboxamide], with ≤ 0.1 µM.
On the same count and under the same terms, then `Cc1cc(C(=O)NC(C)(C)C)cc2nc(C(C)C)c(CC3CCC(F)(F)CC3)n12` [Compound 219, N-tert-Butyl-3-[(4,4-difluorocyclohexyl)methyl]-2-isopropyl-5-methylimidazo[1,2-a]pyridine-7-carboxamide], with ≤ 0.1 µM.
Still for that read-out and setting: then `CC(C)(C)NC(=O)c1cc(Cl)n2c(CC3CCC(F)(F)CC3)c(C(F)(F)F)nc2c1` [Compound 220, N-tert-Butyl-5-chloro-3-[(4,4-difluorocyclohexyl)methyl]-2-(trifluoromethyl)imidazo[1,2-a]pyridine-7-carboxamide], with ≤ 0.1 µM; and `CC(F)(F)c1nc2cc(C(=O)NC3CCOCC3)cc(C#N)n2c1Cc1ccc(Cl)cc1` [Compound 221, 3-(4-Chlorobenzyl)-5-cyano-2-(1,1-difluoroethyl)-N-(tetrahydro-2H-pyran-4-yl)imidazo[1,2-a]pyridine-7-carboxamide], with ≤ 0.1 µM; and `CC(F)(F)c1nc2cc(C(=O)N[C@H]3C[C@@H]4CC[C@H]3O4)cc(C#N)n2c1Cc1ccc(Cl)cc1` [Compound 222, N-[(1R,2S,4S)-7-Oxabicyclo[2.2.1]heptan-2-yl]-3-(4-chlorobenzyl)-5-cyano-2-(1,1-difluoroethyl)imidazo[1,2-a]pyridine-7-carboxamide], with ≤ 0.1 µM.
`[2H]C([2H])([2H])OC(C)(C)CNC(=O)c1cc(C#N)n2c(Cc3ccc(Cl)cc3)c(C(C)(F)F)nc2c1` [Compound 223, 3-(4-Chlorobenzyl)-5-cyano-2-(1,1-difluoroethyl)-N-(2-methoxy-d3-2-methylpropyl)imidazo[1,2-a]pyridine-7-carboxamide]: in assay [2], the IC50 was ≤ 0.1 µM.
On the same count and under the same terms, under `Cc1cc(C(=O)NC2CCOCC2)cc2nc(C(C)C)c(Cc3ccc(Cl)cc3)n12` [Compound 224, 3-(4-Chlorobenzyl)-2-isopropyl-5-methyl-N-(tetrahydro-2H-pyran-4-yl)imidazo[1,2-a]pyridine-7-carboxamide] stands ≤ 0.1 µM; under `CC(C)(C)NC(=O)c1cc(C#N)n2c(CC3CCC(F)(F)CC3)c(C(C)(F)F)nc2c1` [Compound 225, N-tert-Butyl-5-cyano-3-[(4,4-difluorocyclohexyl)methyl]-2-(1,1-difluoroethyl)imidazo[1,2-a]pyridine-7-carboxamide], ≤ 0.1 µM; under `CC(C)c1nc2cc(C(=O)NC(C)(C)C)cc(C#N)n2c1CC1CCC(F)(F)CC1` [Compound 226, N-tert-Butyl-5-cyano-3-[(4,4-difluorocyclohexyl)methyl]-2-isopropylimidazo[1,2-a]pyridine-7-carboxamide], ≤ 0.1 µM.
`CC(C)(C)NC(=O)c1cc2nc(C(F)(F)F)c(CC3CCC(F)(F)CC3)n2c(Cl)c1Cl` [Compound 227, N-tert-Butyl-5,6-dichloro-3-[(4,4-difluorocyclohexyl)methyl]-2-(trifluoromethyl)imidazo[1,2-a]pyridine-7-carboxamide]: in assay [2], the IC50 is ≤ 0.1 µM.
